Key:
[1] = target: T1, Rat Kidney Medullary V2 Receptors (Rattus norvegicus, UniProt Q00788); assay: Binding Assay to Rat Kidney Medullary V2 Receptors; settings: for IC50: rat kidney medulla membranes, read-out: V2 IC50; for inhibition at 10 µM: rat
T1 construct: Medullary tissues from rat kidneys are dissected out; from tissue; host or cells: rat kidney medulla membranes
In short: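 IC50 derived from competition curves; bound tritium counted by liquid scintillation after filtration. Rat medullary kidney membranes (Tris-HCl pH 7.4, BSA, PMSF) were incubated 120 min to equilibrium with radioligand and test compound (added in 50% DMSO). Nonspecific binding: 1.0 μM unlabeled ligand.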

Rat Hepatic V1 Receptors = target: T2, Rat Hepatic V1 Receptors (Rattus norvegicus, UniProt P30560); assay: Binding Assay to Rat Hepatic V1 Receptors; settings: for IC50: rat liver membranes, read-out: V1 IC50; for inhibition at 10 µM: 2 h, rat
T2 construct: Rat liver plasma membranes expressing the vasopressin V1 receptor subtypes; from tissue; host or cells: rat liver plasma membranes
T2 sequence (P30560 whole entry): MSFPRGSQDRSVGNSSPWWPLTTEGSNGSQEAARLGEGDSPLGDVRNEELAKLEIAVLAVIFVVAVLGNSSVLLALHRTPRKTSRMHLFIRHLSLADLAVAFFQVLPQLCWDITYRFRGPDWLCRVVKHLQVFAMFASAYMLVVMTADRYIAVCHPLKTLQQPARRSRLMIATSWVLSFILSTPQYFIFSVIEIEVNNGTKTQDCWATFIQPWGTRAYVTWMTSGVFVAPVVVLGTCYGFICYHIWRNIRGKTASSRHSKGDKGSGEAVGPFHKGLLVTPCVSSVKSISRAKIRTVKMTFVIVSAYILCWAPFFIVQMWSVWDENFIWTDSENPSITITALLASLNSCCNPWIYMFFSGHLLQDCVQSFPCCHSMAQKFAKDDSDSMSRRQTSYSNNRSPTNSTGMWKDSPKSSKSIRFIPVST

oxytocin receptors = target: T3, oxytocin receptors (Rattus norvegicus, UniProt P70536); assay: Oxytocin Receptor Binding; settings: for IC50: 1.0 nM [3H]oxytocin; for inhibition at 10 µM: [3H]oxytocin
T3 construct: The uteri are dissected out, cleaned of fat and connective tissues; from tissue; host or cells: uterus of DES-treated female Sprague-Dawley rats
T3 sequence (P70536 1-388): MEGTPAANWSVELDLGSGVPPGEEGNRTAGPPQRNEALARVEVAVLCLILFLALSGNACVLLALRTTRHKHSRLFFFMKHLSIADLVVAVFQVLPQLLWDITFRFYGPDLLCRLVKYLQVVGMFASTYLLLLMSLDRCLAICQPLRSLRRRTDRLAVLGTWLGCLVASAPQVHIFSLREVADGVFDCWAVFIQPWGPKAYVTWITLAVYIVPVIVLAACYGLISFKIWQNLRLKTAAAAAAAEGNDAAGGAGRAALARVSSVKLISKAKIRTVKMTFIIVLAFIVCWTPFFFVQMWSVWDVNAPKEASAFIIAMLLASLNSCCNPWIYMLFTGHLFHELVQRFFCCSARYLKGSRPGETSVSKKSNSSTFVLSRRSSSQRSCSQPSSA
Procedure: Oxytocin Receptor Binding
Female Sprague-Dawley rats weighing approximately 200-250 g are injected intramuscularly (i.m.) with 0.3 mg/kg of body weight of diethylstilbestrol (DES). The rats are sacrificed 18 hours later under pentobarbital anesthesia. The uteri are dissected out, cleaned of fat and connective tissues and rinsed in 50 ml of normal saline. The tissue pooled from six rats is homogenized in 50 ml of […] Tris.HCl, containing 0.5 mM dithiothreitol and 1.0 mM EDTA, adjusted to pH 7.4, using a polytron at setting 6 with three passes of 10 sec each. The homogenate is passed through two (2) layers of cheesecloth and the filtrate centrifuged at 1000× g for 10 min. The clear supernatant is removed and recentrifuged at 165,000× g for 30 min. The resulting pellet containing the oxytocin receptors is resuspended in 50.0 mM Tris.HCl containing 5.0 mM MgCl2 at pH 7.4, to give a protein concentration of 2.5 mg/ml of tissue suspension. This preparation is used in subsequent binding assays with [^3 H]Oxytocin.
Binding of 3,5-[^3 H]Oxytocin ([^3 H]OT) to its receptors is done in microtiter plates using [^3 H]OT, at various concentrations, in an assay buffer of 50.0 mM Tris.HCl, pH 7.4 and containing 5.0 mM MgCl2, and a mixture of protease inhibitors: BSA, 0.1 mg; aprotinin, 1.0 mg; 1,10-phenanthroline, 2.0 mg; […], 10.0 mg; and PMSF, 0.3 mg per 100 ml of buffer solution. Non-specific binding is determined in the presence of 1.0 uM unlabeled OT. The binding reaction is terminated after 60 min , at 22° C. by rapid filtration through glass fiber filters using a Brandel® cell harvester (Biomedical Research and Development Laboratories, Inc., Gaithersburg, Md.). Competition experiments are conducted at equilibrium using 1.0 nM [^3 H]OT and varying the concentration of the displacing agents. The concentrations of agent displacing 50% of [^3 H]OT at its sites (IC50) are calculated by a computer assisted LUNDON-2 program (LUNDON SOFTWARE INC., Ohio, USA).

Vasopressin V2 = Vasopressin V2 Antagonist Activity in Conscious Hydrated Rats; assay type: in vivo, rat; settings: 10 mg/kg orally, AVP 0.4 μg/kg i.p.
In short: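 Four-hour urine output, osmolality and electrolytes (Na+, K+, Cl−) recorded in water-loaded rats (30 mL/kg deionized water orally) given AVP i.p. at 0.4 μg/kg. Test compounds were given orally at 0.1–100 mg/kg 1 h before AVP; 2–4 rats per compound.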

Vasopressin V1 = Vasopressin V1 Antagonist Activity in Conscious Rats (vasopressin vasopressor response); assay type: in vivo, rat
In short: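 Conscious rats are restrained supine, and under local 2% procaine a PE 10/20 cannula is passed through the ventral caudal tail artery into the lower abdominal aorta. The caudal vein is cannulated for intravenous dosing. Blood pressure is recorded with a Statham P23Db transducer, and vasopressin injections are repeated after compound dosing. Percent antagonism is calculated against the pre-drug vasopressor response taken as 100%.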

T1 sequence (Q00788 whole entry): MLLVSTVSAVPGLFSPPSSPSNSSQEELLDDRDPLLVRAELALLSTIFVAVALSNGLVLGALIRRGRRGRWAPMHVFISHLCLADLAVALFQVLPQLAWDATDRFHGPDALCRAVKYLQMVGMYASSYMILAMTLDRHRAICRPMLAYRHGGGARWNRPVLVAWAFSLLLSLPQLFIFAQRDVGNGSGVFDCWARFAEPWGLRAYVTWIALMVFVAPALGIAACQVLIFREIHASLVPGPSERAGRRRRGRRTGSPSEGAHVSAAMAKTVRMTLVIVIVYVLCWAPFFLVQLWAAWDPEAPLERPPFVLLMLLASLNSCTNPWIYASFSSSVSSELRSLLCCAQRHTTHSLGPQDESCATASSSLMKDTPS

Row | Compound | IC50 [1] [nM] | IC50 (Rat Hepatic V1 Receptors) [nM] | IC50 (oxytocin receptors) [nM] | inhibition at 10 µM (oxytocin receptors) [%] | inhibition at 10 µM [1] [%] | inhibition at 10 µM (Rat Hepatic V1 Receptors) [%] | other results
1 | Cc1cc(C(=O)N2Cc3cccn3Cc3ccccc32)cc(C)c1NC(=O)c1ccc(Cl)cc1Cl [Example 473] | – | – | – | 20 | 56 | 90 | Osmolality (Vasopressin V2): 1493 mOsm/kg; Urine Volume (Vasopressin V2): 2.3 ml/4 hrs
2 | Cc1ccccc1C(=O)Nc1ccc(C(=O)N2CCc3nncn3-c3ccccc32)cc1 [Example 486, N-[4-[(4,5-Dihydro-6H-[1,2,4]triazolo[4,3-a][1,5]-benzodiazepin-6-yl)carbonyl)phenyl]-2-methylbenzoate] | – | – | – | 18 | 77 | 39 | –
3 | O=C(Nc1ccc(C(=O)N2Cc3cccn3Cc3ccccc32)cc1)C(Cl)c1ccccc1 (stereo not drawn) [Example 583, α-Chloro-N-[4-(5H-pyrrolo[2,1-c][1,4]benzodiazepin-10(11H)-ylcarbonyl)phenyl]benzeneacetamide] | 27 | 54 | 4000 | 61 | – | – | –
4 | CCOC(=O)c1ccc2n1Cc1ccccc1N(C(=O)c1ccc(NC(=O)c3ccc(Cl)cc3Cl)c(C)c1)C2 [Example 592, Ethyl 10-[4-[(2,4-dichlorobenzoyl)amino]-3-methylbenzoyl]-10,11-dihydro-5H-pyrrolo[2,1-c][1,4]benzodiazepine-3-carboxylate] | 240 | 3300 | – | 41 | – | – | Max. % Inhibition (Vasopressin V1; 30 mg/kg i.v.): 37%; Time (of max. % inhibition) (Vasopressin V1; 30 mg/kg i.v.): 90 min
5 | CCOC(=O)c1ccc2c(c1)N(C(=O)c1ccc(NC(=O)c3ccccc3C)cc1)Cc1cccn1C2 [Example 676, Ethyl 10,11-Dihydro-10-[4-[(2-methylbenzoyl)amino]benzoyl]-5H-pyrrolo[2,1-c][1,4]benzodiazepin-8-carboxylate] | – | – | – | 32 | 89 | 41 | –
6 | Cc1cc(C(=O)N2Cc3cccn3Cc3ccccc32)ccc1NC(=O)c1ccccc1C [Example 96, N-[4-(5H-pyrrolo[2,1-c][1,4]benzodiazepin-10(11H)-ylcarbonyl)-2-methylphenyl]-2-methylbenzamide] | 11 | 56 | 1200 | 94 | – | – | –
7 | Cc1cccc(C(=O)Nc2ccc(C(=O)N3Cc4cccn4-c4ccccc43)cc2)c1C [Example 21, N-[4-(pyrrolo[1,2-a]quinoxalin-5(4H)-ylcarbonyl)phenyl]-2,3-dimethyl-benzamide] | 87 | 930 | 2450 | 67 | – | – | –
8 | O=C(c1ccc(NP(=O)(c2ccccc2)c2ccccc2)cc1)N1Cc2cccn2Cc2ccccc21 [Example 491, 10-[4-[(Diphenylphosphinyl)amino]benzoyl]-10,11-dihydro-5H-pyrrolo-[2,1-c][1,4]benzodiazepine] | – | – | – | 46 | 83 | 82 | –
9 | O=C(CCl)Nc1ccc(C(=O)N2Cc3cccn3Cc3ccccc32)cc1 [Example 589, 2-Chloro-N-[4-(5H-pyrrolo[2,1-c][1,4]benzodiazepin-10(11H) -ylcarbonyl)phenyl]acetamide] | – | – | 2900 | 79 | 82 | 91 | –
10 | O=C(CN1CCOCC1)N(Cc1ccccc1Cl)c1ccc(C(=O)N2Cc3cccn3Cc3ccccc32)cc1 [Example 591, N-[(2-Chlorophenyl)methyl]-N-[4-(5H-pyrrolo[2,1-c][1,4]benzodiazepin-10(11H) -ylcarbonyl)phenyl]-4-morpholineacetamide] | – | – | – | 29 | 64 | 45 | –
11 | O=C(Nc1ccc(C(=O)N2Cc3cccn3Cc3ccccc32)cc1)c1cccc(Cl)c1Cl [Example 468, N-[4-(5H-pyrrolo[2,1-c][1,4]benzodiazepin-10(11H)-ylcarbonyl)phenyl]-2,3-dichlorobenzamide] | 29 | 27 | 260 | 96 | – | – | Max. % Inhibition (Vasopressin V1; 10 mg/kg i.v.): 68%; Time (of max. % inhibition) (Vasopressin V1; 10 mg/kg i.v.): 30 min
12 | Cc1ccccc1CC(=O)Nc1ccc(C(=O)N2Cc3cccn3-c3ccccc32)cc1 [Example 36, N-[4-(pyrrolo[1,2-a]quinoxalin-5(4H)-ylcarbonyl)phenyl]-2-methylbenzene-acetamide] | 54 | 100 | 2450 | 67 | – | – | Max. % Inhibition (Vasopressin V1; 30 mg/kg i.v.): 71%; Time (of max. % inhibition) (Vasopressin V1; 30 mg/kg i.v.): 60 min

Now from value to molecule, other results behind:

Row | IC50 [1] [nM] | IC50 (Rat Hepatic V1 Receptors) [nM] | IC50 (oxytocin receptors) [nM] | inhibition at 10 µM (oxytocin receptors) [%] | inhibition at 10 µM [1] [%] | inhibition at 10 µM (Rat Hepatic V1 Receptors) [%] | Compound | other results
13 | 39 | 56 | 1000 | 97 | – | – | O=C(Nc1ccc(C(=O)N2Cc3ccc(CN4CCCC4)n3Cc3ccccc32)cc1)c1ccc(Cl)cc1Cl [Example 665, N-[4-[[3-(1-pyrrolidinylmethyl)-5H-pyrrolo[2,1-c][1,4]benzodiazepin-10(11H)-yl]carbonyl]phenyl)-2,4-dichlorobenzamide] | –
14 | 13 | 160 | 2100 | 83 | – | – | O=C(Nc1ccc(C(=O)N2Cc3ccc(CN4CCOCC4)n3Cc3ccccc32)cc1)c1ccc(Cl)cc1Cl [Example 666, N-[4-[[3-(4-morpholinomethyl)-5H-pyrrolo[2,1-c][1,4]benzodiazepin-10(11H)-yl]carbonyl]phenyl]-2,4-dichlorobenzamide] | –
15 | 13 | 170 | 1600 | 89 | – | – | CCN(CC)Cc1ccc2n1Cc1ccccc1N(C(=O)c1ccc(NC(=O)c3ccc(Cl)cc3Cl)cc1)C2 [Example 667, N-[4-[[3-[(diethylamino)methyl]-5H-pyrrolo[2,1-c][1,4]benzodiazepin-10(11H)-yl]carbonyl]phenyl]-2,4-dichlorobenzamide] | –
16 | 48 | 120 | 1400 | 95 | – | – | CN(C)Cc1ccc2n1Cc1ccccc1N(C(=O)c1ccc(NC(=O)c3ccc(Cl)cc3Cl)cc1)C2 [Example 664] | –
17 | – | – | – | 2 | 93 | 58 | O=C(Nc1ccc(C(=O)N2Cc3ccc(C(=O)C(Cl)(Cl)Cl)n3Cc3ccccc32)cc1)c1ccc(Cl)cc1Cl [Example 598, N-[4-[[3-(Trichloroacetyl)-5H-pyrrolo[2,1-c][1,4]benzodiazepin-10(11H) -yl]carbonyl]phenyl]-2,4-dichlorobenzamide] | –
18 | 80 | 200 | 2960 | 79 | – | – | O=Cc1ccc2n1Cc1ccccc1N(C(=O)c1ccc(NC(=O)c3ccc(Cl)cc3Cl)cc1)C2 [Example 580, 2,4-Dichloro-N-[4-[(3-formyl-5H-pyrrolo[2,1-c][1,4]benzodiazepin-10(11H)-yl)carbonyl]phenyl]benzamide] | –

Reference: patent publication US5624923A, “Tricyclic diazepine vasopressin antagonists and oxytocin antagonists” (priority 1995, dated 1997)
